The subject of this assay is BDF1 mice, P388 leukemia ip, median survival T/C. As to the kind of experiment: NCI In Vivo Anticancer Drug Screen. Data for tumor model P388 Leukemia (intraperitoneal) in B6D2F1 (BDF1) mice. Particulars: endpoint: median survival time, higher = longer survival. The gist of the method: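 In tumour-bearing mice, survival after compound treatment is set against the vehicle group and given as a quotient.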

The mark [1] stands for this setting: dose: 50.0 mg/kg/injection, schedule: Q01DX009 (ip), vehicle: saline with Tween-80.
The mark [2] stands for this setting: dose: 100.0 mg/kg/injection, schedule: Q01DX009 (ip), vehicle: saline with Tween-80.
The mark [3] stands for this setting: dose: 100.0 mg/kg/injection, schedule: Q04DX003 (ip), vehicle: saline with Tween-80.
[4] abbreviates: dose: 200.0 mg/kg/injection, schedule: Q01DX009 (ip), vehicle: saline with Tween-80.
Setting [5] is: dose: 200.0 mg/kg/injection, schedule: Q04DX003 (ip), vehicle: saline with Tween-80.
Where [6] appears, read: dose: 400.0 mg/kg/injection, schedule: Q01DX009 (ip), vehicle: saline with Tween-80.
[7] abbreviates: dose: 400.0 mg/kg/injection, schedule: Q04DX003 (ip), vehicle: saline with Tween-80.
[8] abbreviates: dose: 50.0 mg/kg/injection, schedule: Q04DX003 (ip), vehicle: saline with Tween-80.

“And” between values parts separate entries of the source, which are not always exact repeats. Equal entries are not always repeated. Toxic doses and inconclusive results are not listed.

For the compound `O=c1[nH]c(-c2ccccc2)c(-c2ccccc2)[nH]1`, the T/C was 95 % of control (dose: 12.5 mg/kg/injection, schedule: Q01DX009 (ip), vehicle: Klucel (hydroxypropylcellulose) (HPC)); 86 % of control (dose: 25.0 mg/kg/injection, schedule: Q01DX009 (ip), vehicle: Klucel (hydroxypropylcellulose) (HPC)); 86 % of control (dose: 50.0 mg/kg/injection, schedule: Q01DX009 (ip), vehicle: Klucel (hydroxypropylcellulose) (HPC)).
Consider `O=C1CCC(=O)N1CCC(=O)N(C(=O)NC1CCCCC1)C1CCCCC1`, for which the T/C reads like this: (dose: 12.5 mg/kg/injection, schedule: Q01DX009 (ip), vehicle: saline with Tween-80) 100 % of control; (dose: 25.0 mg/kg/injection, schedule: Q01DX009 (ip), vehicle: saline with Tween-80) 101 % of control; under setting [1], 104 % of control and 111 % of control; under setting [2], 101 % of control; under setting [3], 118 % of control; under setting [4], 100 % of control and 123 % of control. The T/C was 118 % of control under setting [5], 111 % of control under setting [6] and 113 % of control under setting [7].
In the case of `C=CC(=O)NC(Cc1ccccc1)C(=O)O` (stereo not drawn), the T/C under setting [1] is 102 % of control, the T/C under setting [2] was 98 % of control and the T/C under setting [4] was 99 % of control.
With `CCOC(=O)Cn1ccc(=O)[nH]c1=O`, the T/C is 100 % of control (dose: 75.0 mg/kg/injection, schedule: Q04DX003 (ip), vehicle: saline); 100 % of control (dose: 150.0 mg/kg/injection, schedule: Q04DX003 (ip), vehicle: saline); 100 % of control (dose: 300.0 mg/kg/injection, schedule: Q04DX003 (ip), vehicle: saline).
With `COC(=O)C(c1ccccc1)C(Br)C(=O)c1ccccc1` (stereo not drawn), the T/C is 100 % of control (dose: 100.0 mg/kg/injection, schedule: Q04DX003 (ip), vehicle: Klucel (hydroxypropylcellulose) (HPC)); 88 % of control (dose: 200.0 mg/kg/injection, schedule: Q01DX009 (ip), vehicle: Klucel (hydroxypropylcellulose) (HPC)); 104 % of control (dose: 200.0 mg/kg/injection, schedule: Q04DX003 (ip), vehicle: Klucel (hydroxypropylcellulose) (HPC)); 90 % of control (dose: 400.0 mg/kg/injection, schedule: Q04DX003 (ip), vehicle: Klucel (hydroxypropylcellulose) (HPC)).
In the case of `ClCCN(CCCl)CCN1c2ccccc2Sc2ccccc21`, the T/C is, setting by setting: (dose: 0.79 mg/kg/injection, schedule: Q01DX009 (ip), vehicle: Klucel (hydroxypropylcellulose) (HPC)) 90 % of control; (dose: 1.1 mg/kg/injection, schedule: Q01DX009 (ip), vehicle: Klucel (hydroxypropylcellulose) (HPC)) 90 % of control; (dose: 2.5 mg/kg/injection, schedule: Q01DX009 (ip), vehicle: saline with Tween-80) 150 % of control; (dose: 4.0 mg/kg/injection, schedule: Q01DX009 (ip), vehicle: Klucel (hydroxypropylcellulose) (HPC)) 170 % of control; (dose: 5.0 mg/kg/injection, schedule: Q01DX009 (ip), vehicle: saline with Tween-80) 186 % of control; (dose: 9.37 mg/kg/injection, schedule: Q01DX009 (ip), vehicle: Klucel (hydroxypropylcellulose) (HPC)) 150 % of control. In addition, the T/C is, setting by setting: (dose: 10.0 mg/kg/injection, schedule: Q01DX009 (ip), vehicle: saline with Tween-80) 186 % of control; (dose: 12.5 mg/kg/injection, schedule: Q04DX003 (ip), vehicle: Klucel (hydroxypropylcellulose) (HPC)) 160 % of control; (dose: 17.0 mg/kg/injection, schedule: Q04DX003 (ip), vehicle: Klucel (hydroxypropylcellulose) (HPC)) 166 % of control; (dose: 17.5 mg/kg/injection, schedule: Q04DX003 (ip), vehicle: Klucel (hydroxypropylcellulose) (HPC)) 185 % of control; (dose: 20.0 mg/kg/injection, schedule: Q01DX009 (ip), vehicle: saline with Tween-80) 95 % of control; (dose: 23.0 mg/kg/injection, schedule: Q04DX003 (ip), vehicle: Klucel (hydroxypropylcellulose) (HPC)) 109 % of control. In addition, the T/C reads like this: (dose: 25.0 mg/kg/injection, schedule: Q04DX003 (ip), vehicle: Klucel (hydroxypropylcellulose) (HPC)) 175 % of control and 200 % of control; (dose: 35.0 mg/kg/injection, schedule: Q04DX003 (ip), vehicle: Klucel (hydroxypropylcellulose) (HPC)) 109 % of control and 210 % of control; (dose: 37.0 mg/kg/injection, schedule: Q04DX003 (ip), vehicle: Klucel (hydroxypropylcellulose) (HPC)) 185 % of control; (dose: 37.5 mg/kg/injection, schedule: Q01DX009 (ip), vehicle: Klucel (hydroxypropylcellulose) (HPC)) 170 % of control; (dose: 50.0 mg/kg/injection, schedule: Q04DX003 (ip), vehicle: Klucel (hydroxypropylcellulose) (HPC)) 109 % of control; under setting [8], 104 % of control.
For `CCOC(=O)CCSc1ccccc1`, the T/C reads like this: (dose: 25.0 mg/kg/injection, schedule: Q04DX003 (ip), vehicle: saline with Tween-80) 98 % of control; under setting [8], 95 % of control.
Consider `C/C(=C\Cl)CN(C)C`, for which the T/C (dose: 56.25 mg/kg/injection, schedule: Q01DX001 (ip), vehicle: saline) is 100 % of control; the T/C (dose: 56.25 mg/kg/injection, schedule: Q04DX003 (ip), vehicle: saline) was 95 % of control; the T/C (dose: 112.5 mg/kg/injection, schedule: Q01DX001 (ip), vehicle: saline) is 86 % of control; the T/C (dose: 112.5 mg/kg/injection, schedule: Q04DX003 (ip), vehicle: saline) is 90 % of control; the T/C (dose: 150.0 mg/kg/injection, schedule: Q01DX009 (ip), vehicle: saline) is 105 % of control; the T/C (dose: 225.0 mg/kg/injection, schedule: Q01DX001 (ip), vehicle: saline) is 100 % of control. The T/C (dose: 225.0 mg/kg/injection, schedule: Q01DX009 (ip), vehicle: saline) is 105 % of control.
For `CCCn1cnc2c(=S)nc[nH]c21`, the T/C under setting [2] was 108 % of control, the T/C under setting [3] is 109 % of control, the T/C under setting [5] was 118 % of control and the T/C under setting [7] was 113 % of control.
As for `CCOC(=O)C(I)CC` (stereo not drawn), the T/C is 100 % of control (dose: 6.25 mg/kg/injection, schedule: Q04DX003 (ip), vehicle: water); 105 % of control (dose: 12.5 mg/kg/injection, schedule: Q01DX009 (ip), vehicle: water); 100 % of control (dose: 12.5 mg/kg/injection, schedule: Q04DX003 (ip), vehicle: water); 98 % of control (dose: 25.0 mg/kg/injection, schedule: Q01DX009 (ip), vehicle: water); 105 % of control (dose: 25.0 mg/kg/injection, schedule: Q04DX003 (ip), vehicle: water); 107 % of control (dose: 50.0 mg/kg/injection, schedule: Q01DX009 (ip), vehicle: water). In addition, the T/C by setting is: (dose: 50.0 mg/kg/injection, schedule: Q04DX003 (ip), vehicle: water) 101 % of control; (dose: 100.0 mg/kg/injection, schedule: Q01DX009 (ip), vehicle: water) 116 % of control; (dose: 100.0 mg/kg/injection, schedule: Q04DX003 (ip), vehicle: water) 96 % of control; (dose: 200.0 mg/kg/injection, schedule: Q01DX009 (ip), vehicle: water) 123 % of control; (dose: 200.0 mg/kg/injection, schedule: Q04DX003 (ip), vehicle: water) 98 % of control and 104 % of control; (dose: 300.0 mg/kg/injection, schedule: Q04DX003 (ip), vehicle: water) 110 % of control. For the same compound, the T/C (dose: 400.0 mg/kg/injection, schedule: Q04DX003 (ip), vehicle: water) is 104 % of control.
For the compound `COc1ccc(/C=C/C2(O)N(C)C(=O)N(C)C(=O)N2C)cc1`, the T/C runs as follows: (dose: 50.0 mg/kg/injection, schedule: Q01DX009 (ip), vehicle: saline) 89 % of control; (dose: 100.0 mg/kg/injection, schedule: Q01DX009 (ip), vehicle: saline) 99 % of control; (dose: 200.0 mg/kg/injection, schedule: Q01DX009 (ip), vehicle: saline) 118 % of control.
Regarding `S=C(Nc1cc2c3c(c1)CCCN3CCC2)Nc1cc2c3c(c1)CCCN3CCC2`, the T/C reads like this: (dose: 100.0 mg/kg/injection, schedule: Q01DX001 (ip), vehicle: saline with Tween-80) 109 % of control; (dose: 200.0 mg/kg/injection, schedule: Q01DX001 (ip), vehicle: saline with Tween-80) 100 % of control; (dose: 400.0 mg/kg/injection, schedule: Q01DX001 (ip), vehicle: saline with Tween-80) 95 % of control.
On to `CCCCCCCCCCCCS(=O)CC(C)O` (stereo not drawn), for which the T/C (dose: 100.0 mg/kg/injection, schedule: Q01DX009 (ip), vehicle: other) is 123 % of control.
In the case of `COC(=O)NC1C(C)C=CC(C)C1I` (stereo not drawn), the T/C under setting [2] was 95 % of control; the T/C under setting [4] is 113 % of control; the T/C under setting [5] is 105 % of control; the T/C under setting [6] was 100 % of control; the T/C under setting [7] was 110 % of control.
